Measured values published in patent publication US20250002452A1, “BICYCLOPENTANE DERIVATIVES” (ICAGEN, LLC, priority 2022, published 2025).

Target: human Kv7.2 (Homo sapiens (Human), UniProt O43526)
Test: SyncroPatch 384 electrophysiology, activation of Kv7.2 in CHO cells
Format: cell-based
Conditions: Kv7.2 activation max %, relative to 30 μM ML-213 max activation
Method: The potency of Kv7 uotentiators was determined using the SyncroPatch 384 (Nanion) high throughput electrophysiology platform.
CHO cells stably expressing either human Kv7.2, Kv7.4 or Kv7.5/7.3 under a constitutive CMV promoter were used for these studies. Cells were maintained in F12 Hams+1 mM L-glutamine (Hyclone) supplemented with 10% FBS (Sigma), 0.3× NEAA (Non-essential Gamino-acids) and 400ug/ml G418 at 37° C. in 5% CO2. Cells were cultured in T-225 flasks (Nunc) for 2-3 days to reach 85-95% confluence prior to electrophysiological recording.
Earle's balanced salt solution (in mM): 135 NaCl, 5.4 KCl, 5 Glucose, 2 CaCl2), 1 MgCl2, 5 HEPES, pH 7.4. Seal enhancer solution (in mM): 90 NaCl, 3 KCl, 35 CaCl2), 10 MgCl2, 10 HEPES, pH 7.4. Extracellular recording solution (in mM): 71 NaCl, 70 NMDG, 13 KCl, 5 Glucose, 2 CaCl2), 1 MgCl2, 10 HEPES, pH 7.4. Intracellular recording solution (in mM): 130 KF, 20 KCl, 4 EGTA, 10 HEPES, 2 EDTA, 0.01 Escin, pH 7.2.
Cells were harvested for electrophysiological recording upon reaching appropriate confluence. Cells were first washed in DPBS (Hyclone, Cat #SH30028.03) and then 2 ml of Accutase (MP Biomedicals #1000449) was added at 28° C. until ˜90% of cells were suspended. F12 HAM's media+1 mM L-glutamine (Hyclone, SH30026.02) was then added to the flask to dilute the accutase. Cells were then triturated until a single cell suspension was achieved, a cell count was performed, and cells were centrifuged for 2 min. at 1,000 rpm. Media was then aspirated, and cells were resuspended in Earle's balanced salt solution to a concentration of 0.75×10^6 cells/ml and allowed to recover for 25 min at 10° C.
At the beginning of each assay, 20 μl of cell suspension was dispensed into each well of a multi-hole 384-well SyncroPatch chip by the onboard pipettor. Cell sealing was initiated, and seal enhancer solution was added to facilitate seal formation. Upon completion of sealing, cells were washed 3 times with extracellular recording solution and the assay voltage protocol was started. Human Kv7.2, Kv7.4 or Kv7.5/7.3 channels were evaluated using a voltage protocol in which cells were voltage-clamped at a holding potential of −60 mV. Potassium currents were continuously activated with a series of three voltage steps to −30 mV for 3 seconds, 40 mV for 1 second and −90 mV for 4 seconds with 12 seconds between successive voltage sweeps. Potassium currents were measured from the −90 mV repolarizing step. Baseline current was assessed for 3.5 minutes prior to the addition of 5.6 μM zinc pyrithione (1μM for Kv7.4). Kv7.2, Kv7.4 or Kv7.5/7.3 current in the presence of zinc pyrithione was acquired over five minutes to allow channels to reach steady state activity prior to addition of test agents. Channel activity was monitored for three minutes preceding the addition of 30 μM ML-213 (3 minutes) to achieve maximum activation. 150 mM TEA with 10 μM XE-991 was applied for 2 minutes to measure the leak current during maximum inhibition of Kv7.2, Kv7.4 or Kv7.5/7.3 channels.
Example 61 Data Analysis Data were collected on the SyncroPatch platform using PatchControl software (Nanion) and processed and analyzed using DataControl Software (Nanion). Percent activation was calculated from potassium current as follows: The average current for the 5 sweeps in the presence of zinc pyrithione immediately preceding test agent addition was taken as the ‘control’ data. Likewise, the average potassium current in the presence of test agents 5 sweeps immediately preceding addition of 30 μM ML-213 was determined for ‘drug’ data. The average potassium current 5 sweeps immediately prior to addition of 150 mM TEA+10 μM XE-991 was determined for ‘max activation’ data while average currents from 5 sweeps immediately following addition of TEA was determined for ‘max inhibition’ data. […]

## COC12CC(NC(=O)NCc3cccc(OC(F)(F)F)c3)(C1)C2 [Example 1, 1-(3-methoxy-1-bicyclo[1.1.1]pentanyl)-3-[[3-(trifluoromethoxy)phenyl]methyl]urea]
  Kv7.2 max: 73%

## O=C(NCc1cccc(OC(F)(F)F)c1)NC12CC(C(F)(F)F)(C1)C2 [Example 2, 1-[[3-(trifluoromethoxy)phenyl]methyl]-3-[3-(trifluoromethyl)-1-bicyclo[1.1.1]pentanyl]urea]
  Kv7.2 max: 70%

## O=C(N[C@@H](CO)c1cccc(Cl)c1)NC12CC(C(F)(F)F)(C1)C2 [Example 3, 1-[(1R)-1-(3-chlorophenyl)-2-hydroxyethyl]-3-[3-(trifluoromethyl)-1-bicyclo[1.1.1]pentanyl]urea]
  Kv7.2 max: 48%

## COC12CC(NC(=O)NCc3cccc(C(F)(F)F)c3)(C1)C2 [Example 4, 1-(3-methoxy-1-bicyclo[1.1.1]pentanyl)-3-[[3-(trifluoromethyl)phenyl]methyl]urea]
  Kv7.2 max: 64%

## N#Cc1cccc(CNC(=O)NC23CC(C(F)(F)F)(C2)C3)c1 [Example 5, 1-[(3-cyanophenyl)methyl]-3-[3-(trifluoromethyl)-1-bicyclo[1.1.1]pentanyl]urea]
  Kv7.2 max: 41%

## O=C(NCc1cccc(OC(F)(F)F)c1)NC12CC(F)(C1)C2 [Example 6, 1-(3-fluoro-1-bicyclo[1.1.1]pentanyl)-3-[[3-(trifluoromethoxy)phenyl]methyl]urea]
  Kv7.2 max: 76%

## O=C(NCc1cccc(C(F)(F)F)c1)NC12CC(C(F)(F)F)(C1)C2 [Example 7, 1-[3-(trifluoromethyl)-1-bicyclo[1.1.1]pentanyl]-3-[[3-(trifluoromethyl)phenyl]methyl]urea]
  Kv7.2 max: 75%

## COc1cccc([C@H](C)NC(=O)NC23CC(F)(C2)C3)c1 [Example 8, 1-(3-fluoro-1-bicyclo[1.1.1]pentanyl)-3-[(1S)-1-(3-methoxyphenyl)ethyl]urea]
  Kv7.2 max: 57%

## C[C@H](NC(=O)NC12CC(F)(C1)C2)c1cccc(C(F)(F)F)c1 [Example 9, 1-(3-fluoro-1-bicyclo[1.1.1]pentanyl)-3-[(1S)-1-[3-(trifluoromethyl)phenyl]ethyl]urea]
  Kv7.2 max: 51%

## C[C@H](NC(=O)NC12CC(F)(C1)C2)c1cccc(OC(F)(F)F)c1 [Example 10, 1-(3-fluoro-1-bicyclo[1.1.1]pentanyl)-3-[(1S)-1-[3-(trifluoromethoxy)phenyl]ethyl]urea]
  Kv7.2 max: 40%

## O=C(NCc1cccc(C(F)(F)F)c1)NC12CC(F)(C1)C2 [Example 11, 1-(3-fluoro-1-bicyclo[1.1.1]pentanyl)-3-[[3-(trifluoromethyl)phenyl]methyl]urea]
  Kv7.2 max: 80%

## O=C(N[C@@H](CO)c1cccc(Br)c1)NC12CC(C(F)(F)F)(C1)C2 [Example 12, 1-[(1R)-1-(3-bromophenyl)-2-hydroxyethyl]-3-[3-(trifluoromethyl)-1-bicyclo[1.1.1]pentanyl]urea]
  Kv7.2 max: 69%

## N#Cc1cccc(CNC(=O)NC23CC(F)(C2)C3)c1 [Example 13, 1-[(3-cyanophenyl)methyl]-3-(3-fluoro-1-bicyclo[1.1.1]pentanyl)urea]
  Kv7.2 max: 48%

## CC12CC(NC(=O)NCc3cccc(C#N)c3)(C1)C2 [Example 14, 1-[(3-cyanophenyl)methyl]-3-(3-methyl-1-bicyclo[1.1.1]pentanyl)urea]
  Kv7.2 max: 50%

## N#Cc1cccc(CNC(=O)NC23CC(C(F)F)(C2)C3)c1 [Example 15, 1-[(3-cyanophenyl)methyl]-3-[3-(difluoromethyl)-1-bicyclo[1.1.1]pentanyl]urea]
  Kv7.2 max: 58%

## C[C@H](NC(=O)NC12CC(F)(C1)C2)c1cccc(Br)c1 [Example 16, 1-[(1S)-1-(3-bromophenyl)ethyl]-3-(3-fluoro-1-bicyclo[1.1.1]pentanyl)urea]
  Kv7.2 max: 40%

## O=C(N[C@@H](CO)c1cccc(Br)c1)NC12CC(F)(C1)C2 [Example 17, 1-[(1R)-1-(3-bromophenyl)-2-hydroxyethyl]-3-(3-fluoro-1-bicyclo[1.1.1]pentanyl)urea]
  Kv7.2 max: 69%

## C[C@H](NC(=O)NC12CC(F)(C1)C2)c1cccc(Cl)c1 [Example 18, 1-[(1S)-1-(3-chlorophenyl)ethyl]-3-(3-fluoro-1-bicyclo[1.1.1]pentanyl)urea]
  Kv7.2 max: 47%

## O=C(NCc1cccc(F)c1)NC12CC(F)(C1)C2 [Example 19, 1-(3-fluoro-1-bicyclo[1.1.1]pentanyl)-3-[(3-fluorophenyl)methyl]urea]
  Kv7.2 max: 49%

## CC12CC(NC(=O)NCc3cccc(C(F)(F)F)c3)(C1)C2 [Example 20, 1-(3-methyl-1-bicyclo[1.1.1]pentanyl)-3-[[3-(trifluoromethyl)phenyl]methyl]urea]
  Kv7.2 max: 77%

## CC(C)C12CC(NC(=O)NCc3cccc(C(F)(F)F)c3)(C1)C2 [Example 21, 1-(3-propan-2-yl-1-bicyclo[1.1.1]pentanyl)-3-[[3-(trifluoromethyl)phenyl]methyl]urea]
  Kv7.2 max: 67%

## O=C(NCc1cccc(C(F)(F)F)c1)NC12CC(C(F)F)(C1)C2 [Example 22, 1-[3-(difluoromethyl)-1-bicyclo[1.1.1]pentanyl]-3-[[3-(trifluoromethyl)phenyl]methyl]urea]
  Kv7.2 max: 74%

## O=C(NCc1cccc(C(F)(F)F)c1)NC12CC(C1)C2 [Example 23, 1-(1-bicyclo[1.1.1]pentanyl)-3-[[3-(trifluoromethyl)phenyl]methyl]urea]
  Kv7.2 max: 79%

## C[C@H](NC(=O)NC12CC(F)(C1)C2)c1cccc(F)c1 [Example 24, 1-(3-fluoro-1-bicyclo[1.1.1]pentanyl)-3-[(1S)-1-(3-fluorophenyl)ethyl]urea]
  Kv7.2 max: 51%

## C[C@H](NC(=O)NC12CC(C1)C2)c1cccc(OC(F)(F)F)c1 [Example 25, 1-(1-bicyclo[1.1.1]pentanyl)-3-[(1S)-1-[3-(trifluoromethoxy)phenyl]ethyl]urea]
  Kv7.2 max: 45%

## C[C@H](NC(=O)NC12CC(C)(C1)C2)c1cccc(OC(F)(F)F)c1 [Example 26, 1-(3-methyl-1-bicyclo[1.1.1]pentanyl)-3-[(1S)-1-[3-(trifluoromethoxy)phenyl]ethyl]urea]
  Kv7.2 max: 58%

## CC(C)C12CC(NC(=O)N[C@@H](C)c3cccc(OC(F)(F)F)c3)(C1)C2 [Example 27, 1-(3-propan-2-yl-1-bicyclo[1.1.1]pentanyl)-3-[(1S)-1-[3-(trifluoromethoxy)phenyl]ethyl]urea]
  Kv7.2 max: 40%

## O=C(NCc1cccc(OC(F)(F)F)c1)NC12CC(C1)C2 [Example 28, 1-(1-bicyclo[1.1.1]pentanyl)-3-[[3-(trifluoromethoxy)phenyl]methyl]urea]
  Kv7.2 max: 75%

## O=C(NCc1cccc(OC(F)F)c1)NC12CC(C(F)(F)F)(C1)C2 [Example 29, 1-[[3-(difluoromethoxy)phenyl]methyl]-3-[3-(trifluoromethyl)-1-bicyclo[1.1.1]pentanyl]urea]
  Kv7.2 max: 52%

## O=C(NCc1cccc(C2COC2)c1)NC12CC(C(F)(F)F)(C1)C2 [Example 30, 1-[[3-(oxetan-3-yl)phenyl]methyl]-3-[3-(trifluoromethyl)-1-bicyclo[1.1.1]pentanyl]urea]
  Kv7.2 max: 65%

## O=C(NCc1cccc(C(F)F)c1)NC12CC(C(F)(F)F)(C1)C2 [Example 31, 1-[[3-(difluoromethyl)phenyl]methyl]-3-[3-(trifluoromethyl)-1-bicyclo[1.1.1]pentanyl]urea]
  Kv7.2 max: 60%

## C#Cc1cccc(CNC(=O)NC23CC(C(F)(F)F)(C2)C3)c1 [Example 32, 1-[(3-ethynylphenyl)methyl]-3-[3-(trifluoromethyl)-1-bicyclo[1.1.1]pentanyl]urea]
  Kv7.2 max: 54%
